Experimental data reported in patent publication US6660724B1, “Compounds and pharmaceutical compositions containing them” (Ilex Products, Inc., priority 1995, dated 2003).

Legend:
Lp(a) = details: man, reported in the literature; cited from earlier work
[1] = high doses necessary for efficacy (4 g/day); cited from earlier work

SMILES	melting point	effect on Lp(a) levels (Lp(a))	serious side-effects [1]
CCOP(=O)(CNCc1cccnc1-c1cc(OC)c(O)c(OC)c1)OCC	99 to 101 °C	–	–
CCOP(=O)(CNCc1ccnc(-c2cc(OC)c(O)c(OC)c2)c1)OCC	124 to 126 °C	–	–
CC[C@H](C)C(=O)O[C@H]1C[C@@H](C)C=C2C=C[C@H](C)[C@H](CC[C@@H]3C[C@@H](O)CC(=O)O3)[C@H]21 [lovastatin]	–	do not affect Lp(a) levels	–
O=C(O)c1cccnc1 [nicotinic acid]	–	lower Lp(a)	flushing, vasodilation and hepatotoxicity
CC(C)(Sc1cc(C(C)(C)C)c(O)c(C(C)(C)C)c1)Sc1cc(C(C)(C)C)c(O)c(C(C)(C)C)c1 [probucol]	–	equally ineffective	–
